Test results as given in PubChem BioAssay AID1419 (Emory University Molecular Libraries Screening Center, 2008).
The source made the active and inactive calls. How the calls were made is not given here.

Test: EBV protein-peptide binding inhibitors, dose response, biochemical, fluorescence polarization (AID 1419)
Conditions: cell-free protein-peptide binding, 2 h; for fold change: measured here: P channel fold over control, at 54 µM

| Structure (SMILES) | IC50 | fold change |
| --- | --- | --- |
| CN(C)c1ccc(/C=C/C(=O)c2cc(Cl)ccc2O)cc1 | 15.9 µM | 1.94 |
| Cc1ccc2oc(=O)c(/C=C(\O)c3ccccc3)nc2c1 | 35.4 µM (inactive) | 2.39 |
| Nc1cc2nsnc2cc1Br | 28.6 µM | 1.84 |
| Cc1ccc(CNC(=O)c2ccc(-n3cccc3)cc2)cc1 | > 54 µM (inactive) | 1.15 |
| COc1cccc(C2C3CN(C)CC=C3C(C#N)=C(N)C2(C#N)C#N)c1OC (centres undefined) | 0.83 µM | 9.89 |
| CCOc1ccc2[nH]c(=O)c(CN(CC3COCCO3)C(=O)C3CC3)cc2c1 (centres undefined) | > 54 µM (inactive) | 1.04 |
| O=c1c(/C=C(\O)c2ccccc2)nc2ccccc2n1-c1ccccc1 | 14.1 µM | 27.6 |
| COc1ccc(C2C=C(c3ccc(Br)s3)Nc3ncnn32)cc1OC (centres undefined) | < 0.42 µM | 24.3 |
| COc1ccc(CCNC(=O)COc2nsnc2N2CCOCC2)cc1OC | > 54 µM (inactive) | 1.22 |
| Cn1cc(/C=C2\SC(=S)N(NC(=O)c3cccc(Cl)c3)C2=O)c2ccccc21 | 4.3 µM | 8.23 |
| Cc1cc(=O)oc2cc(OCC(=O)N/N=C/c3cc([N+](=O)[O-])ccc3O)ccc12 | 4.65 µM | 1 |
| CC(C)Nc1nc(Cl)nc(N(C#N)CN2C(=O)c3ccccc3S2(=O)=O)n1 | > 54 µM (inactive) | 0.923 |
| O=C1/C(=N\S(=O)(=O)c2cccs2)C([n+]2cccc(Cc3ccccc3)c2)=C([O-])c2ccccc21 | 7.66 µM | 13.9 |
| CSC1=N/C(=C\c2ccccc2F)C(=O)S1 | > 54 µM (inactive) | 1.05 |
| COc1ccc2c(c1)c1nc3ccccc3nc1n2Cc1ccc(OC)c(OC)c1 | > 54 µM (inactive) | 2 |
| CN1C(=O)C(=Cc2ccc(N3CCCCCC3)cc2)C(=O)N(C)C1=O | 6.16 µM | 11.1 |
| CS(=O)(=O)N1N=C(c2ccccc2)CC1c1ccc2c(c1)OCO2 (centres undefined) | 9.83 µM | 4.93 |
| Cc1ccccc1-n1c(SCc2c(C)noc2C)nnc1-c1cccnc1 | 3.57 µM | 4.88 |
| COC(=O)CCCC1=CC2=CC(=O)C(C)(OC(=O)c3cccs3)C(=O)C2=CN1c1cccc(C#N)c1 (centres undefined) | > 54 µM (inactive) | 1.49 |

| Structure (SMILES) | IC50 | fold change |
| --- | --- | --- |
| CN(C)c1ccc(/C=N/NC(=O)c2cnc3ccccc3c2)cc1 | 18.6 µM | 3.11 |
| COC(=O)c1cc(N2CCN(C)CC2)nc2ccccc12 | 32.8 µM (inactive) | 1.52 |
| N#Cc1cccc(NC(=O)CSc2ccc3c4c(cccc24)C(=O)c2ccccc2-3)c1 | 5.72 µM | 3.94 |
| O=C(N=Nc1c(O)[nH]c2ccc([N+](=O)[O-])cc12)c1cc(-c2ccccc2Cl)nc2ccccc12 | 4.56 µM | 1.03 |
| COc1cc(/C=C2\SC(=O)N(c3ccc(Cl)cc3)C2=O)cc([N+](=O)[O-])c1O | 4.58 µM | 1.13 |
| Cc1cc(NS(=O)(=O)c2ccc(NC(=O)c3cc4cc(Br)ccc4oc3=O)cc2)no1 | 13.7 µM | 1.15 |
| Nc1nnc(-c2cc3c(ccc4ccccc43)oc2=O)s1 | < 0.42 µM | 2.34 |
| Cc1ccnc(N2C(=O)c3cccc4c([N+](=O)[O-])ccc(c34)C2=O)c1 | 3.48 µM | 2.33 |
| C=CCc1cccc2cc(C(=O)Nc3ccc(S(=O)(=O)Nc4nnc(CC)s4)cc3)c(=O)oc12 | > 54 µM (inactive) | 1.08 |
| Cc1cc(C=C2C(=O)c3ccccc3C2=O)c(C)n1-c1ccccc1 | 5.56 µM | 9.41 |
| O=[N+]([O-])c1ccc(O)c(N=Cc2sc3ccccc3c2O)c1 | > 54 µM (inactive) | 1.45 |
| COC(=O)C1=COC(C)C2CN3CCc4c([nH]c5cc(OC)c(OC)cc45)C3CC12 (centres undefined) | 8.76 µM | 2.6 |
| Cc1cc2nc3c(=O)[nH]c(=O)[nH]c3nc2c([N+](=O)[O-])c1N | < 0.42 µM | 67 |
| Cc1ccc(S(=O)(=O)Nc2ccc(N3CCN(C)CC3)nc2)cc1 | 3.59 µM | 2.82 |
| C=CCn1c(C)cc(C(=O)COC(=O)COc2ccccc2C#N)c1C | > 54 µM (inactive) | 1.04 |
| CCN(CC)S(=O)(=O)c1ccc(C(=O)/C=C/c2ccc(-c3ccc([N+](=O)[O-])cc3)o2)cc1 | 2.97 µM | 12.8 |
| Nc1cccc(C(=O)OCC(=O)Nc2cccc3c2C(=O)c2ccccc2C3=O)c1 | 1.81 µM | 2.03 |
| CCOc1ccc(-n2c(O)c(C=Nc3ccc(N(CC)CC)cc3)c(=O)[nH]c2=O)cc1 | 7.18 µM | 9.37 |
| CCCCNC(=O)CN1C(=O)c2cccc(N)c2C1=O | 2.71 µM | 2.44 |

| Structure (SMILES) | IC50 | fold change |
| --- | --- | --- |
| CCC1=NN2C(=N)/C(=C\c3cccn3-c3ccc(Br)cc3)C(=O)N=C2S1 | > 54 µM (inactive) | 1.04 |
| COC(=O)c1cc2n3ccccc3c(C)c(-c3ccccc3)c-2c1C(=O)OC | 2.69 µM | 4.46 |
| O=C1C(=Cc2cccn2-c2ccc(O)cc2)C(=O)c2ccccc21 | 1.94 µM | 4.4 |
| CCc1cc[n+](-c2nc3ccccc3nc2[N-]S(=O)(=O)c2ccc(Br)s2)cc1 | 3.71 µM | 3.49 |
| O=[n+]1c2c(n([O-])c3cc(F)c(N4CCCC4)cc31)CCCC2 | < 0.42 µM | 11.6 |
| Nc1ccc2nonc2c1[N+](=O)[O-] | < 0.42 µM | 41 |
| Cn1nc(-c2ccc(Cl)cc2)nc2c(=O)n(C)c(=O)nc1-2 | 7.16 µM | 3.19 |
| Nc1ccc2nc3c(=O)n(C4CCCCC4)c(=O)[nH]c3nc2c1 | < 0.42 µM | 101 |
| Cc1ccc2nc(SCC(=O)Nc3ccccc3N3CCOCC3)c(C#N)cc2c1 | > 54 µM (inactive) | 1.02 |
| Cc1ccc(C(=O)ONc2ccc(N=NC(=O)c3ccccc3O)cc2)cc1 | 4.35 µM | 0.99 |
| COC(OC)c1ccnc(-c2ccc(OC(=O)c3cccs3)cc2)n1 | > 54 µM (inactive) | 0.937 |
| CCOC(=O)C1CCCN(c2ccc([N+](=O)[O-])c3nonc23)C1 (centres undefined) | < 0.42 µM | 143 |
| CCO[C@H]1OC(C(=O)N2CCCCCCC2)=C[C@@H](c2ccc(C(F)(F)F)cc2)[C@@H]1CCCO | > 54 µM (inactive) | 0.95 |
| COc1ccc(N/C=C2\C(=O)CCc3c2oc2cc(Cl)c(O)c(Cl)c32)cc1 | > 54 µM (inactive) | 11.2 |
| O=C(Nc1ccc2[nH]c3c(c2c1)CCCC3)c1ccco1 | 27.9 µM | 2.83 |
| Cn1c(SCC(=O)Nc2ccc3nc(SCC(=O)N4CCCC4)sc3c2)nnc1-c1ccccc1 | > 54 µM (inactive) | 1.08 |
| Cc1cc([N+](=O)[O-])ccc1-c1ccc(/C=N/NC(=O)Cc2ccccc2)o1 | 6.04 µM | 10.6 |
| CC(=O)[C@@H]1[C@@H]2C(=O)N(C3CCCCC3)C(=O)[C@@H]2C2c3ccccc3C=CN21 (some centres undefined) | 51.9 µM (inactive) | 2 |
| CCOc1ccc(-c2csc(NC(=O)CSC3=NC(=O)CN3C(C)=O)n2)c2ccccc12 | > 54 µM (inactive) | 0.947 |
